The values that follow are results of earlier work, collected in patent US9533949B2, “Processes for the preparation of 3-alkyl indoles” (APOTEX PHARMACHEM INC., priority 2012, dated 2017).

Bounds are passed on as bounds.

The target in one data set is insulin receptor (Homo sapiens, UniProt P06213).
Data set [1] has as its target T1, insulin-like growth factor-I receptor (IGF-1R) (Homo sapiens, UniProt P08069). Conditions: allosteric inhibitor.
Data set [2] concerns the target T1, insulin-like growth factor-I receptor (IGF-1R). As to conditions: allosteric inhibitor. The source holds these as a separate data set.
The target of another data set is D2 receptor (Homo sapiens, UniProt P14416). As to conditions: selectivity to other GPCRs.
Sequence of D2 receptor (P14416 whole entry): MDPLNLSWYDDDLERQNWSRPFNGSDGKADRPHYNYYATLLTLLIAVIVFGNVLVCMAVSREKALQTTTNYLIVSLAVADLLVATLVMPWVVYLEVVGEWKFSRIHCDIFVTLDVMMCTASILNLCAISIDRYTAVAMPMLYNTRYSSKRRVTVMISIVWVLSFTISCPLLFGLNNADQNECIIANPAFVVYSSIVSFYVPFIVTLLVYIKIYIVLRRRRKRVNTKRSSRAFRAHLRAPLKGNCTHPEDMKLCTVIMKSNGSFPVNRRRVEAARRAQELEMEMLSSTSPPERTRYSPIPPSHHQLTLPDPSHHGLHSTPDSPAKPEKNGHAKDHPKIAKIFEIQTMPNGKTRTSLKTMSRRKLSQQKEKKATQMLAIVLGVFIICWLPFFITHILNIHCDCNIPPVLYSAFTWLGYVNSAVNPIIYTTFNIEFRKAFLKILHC

T1 sequence (P08069 31-1367, species assumed): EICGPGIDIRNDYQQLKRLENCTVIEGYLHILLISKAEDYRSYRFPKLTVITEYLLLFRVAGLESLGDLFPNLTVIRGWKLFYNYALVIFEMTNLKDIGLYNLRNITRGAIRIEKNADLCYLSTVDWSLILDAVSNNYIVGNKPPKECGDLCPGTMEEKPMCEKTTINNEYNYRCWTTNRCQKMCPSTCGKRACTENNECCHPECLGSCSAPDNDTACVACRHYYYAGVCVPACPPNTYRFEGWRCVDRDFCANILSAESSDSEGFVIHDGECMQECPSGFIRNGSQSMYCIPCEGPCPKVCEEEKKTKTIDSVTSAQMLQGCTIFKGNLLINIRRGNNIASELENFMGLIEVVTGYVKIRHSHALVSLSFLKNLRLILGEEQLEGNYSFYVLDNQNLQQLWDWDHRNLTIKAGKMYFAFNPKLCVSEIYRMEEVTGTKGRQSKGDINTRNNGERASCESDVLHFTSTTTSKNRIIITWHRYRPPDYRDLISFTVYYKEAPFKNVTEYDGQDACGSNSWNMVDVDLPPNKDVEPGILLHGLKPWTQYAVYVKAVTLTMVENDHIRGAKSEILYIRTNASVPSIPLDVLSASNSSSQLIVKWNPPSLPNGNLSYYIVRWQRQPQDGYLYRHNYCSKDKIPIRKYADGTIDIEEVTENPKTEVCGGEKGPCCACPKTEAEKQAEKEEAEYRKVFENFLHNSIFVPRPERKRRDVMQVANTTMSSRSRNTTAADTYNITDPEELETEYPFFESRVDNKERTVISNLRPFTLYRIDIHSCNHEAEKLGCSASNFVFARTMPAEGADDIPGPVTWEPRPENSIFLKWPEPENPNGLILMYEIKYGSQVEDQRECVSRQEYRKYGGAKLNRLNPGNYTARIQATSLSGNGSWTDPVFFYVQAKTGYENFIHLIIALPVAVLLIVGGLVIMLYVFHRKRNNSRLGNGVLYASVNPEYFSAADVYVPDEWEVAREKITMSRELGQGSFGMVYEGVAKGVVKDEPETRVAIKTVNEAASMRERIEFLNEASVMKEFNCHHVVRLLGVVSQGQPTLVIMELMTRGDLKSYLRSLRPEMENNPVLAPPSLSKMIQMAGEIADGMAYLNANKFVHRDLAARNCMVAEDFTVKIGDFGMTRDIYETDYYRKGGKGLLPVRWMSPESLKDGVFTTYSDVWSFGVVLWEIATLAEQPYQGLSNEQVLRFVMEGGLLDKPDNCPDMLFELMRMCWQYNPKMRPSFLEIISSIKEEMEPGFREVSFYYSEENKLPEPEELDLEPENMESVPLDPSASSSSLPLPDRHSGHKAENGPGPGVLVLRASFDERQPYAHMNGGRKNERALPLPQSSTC
Sequence of insulin receptor (P06213 28-1382, species assumed): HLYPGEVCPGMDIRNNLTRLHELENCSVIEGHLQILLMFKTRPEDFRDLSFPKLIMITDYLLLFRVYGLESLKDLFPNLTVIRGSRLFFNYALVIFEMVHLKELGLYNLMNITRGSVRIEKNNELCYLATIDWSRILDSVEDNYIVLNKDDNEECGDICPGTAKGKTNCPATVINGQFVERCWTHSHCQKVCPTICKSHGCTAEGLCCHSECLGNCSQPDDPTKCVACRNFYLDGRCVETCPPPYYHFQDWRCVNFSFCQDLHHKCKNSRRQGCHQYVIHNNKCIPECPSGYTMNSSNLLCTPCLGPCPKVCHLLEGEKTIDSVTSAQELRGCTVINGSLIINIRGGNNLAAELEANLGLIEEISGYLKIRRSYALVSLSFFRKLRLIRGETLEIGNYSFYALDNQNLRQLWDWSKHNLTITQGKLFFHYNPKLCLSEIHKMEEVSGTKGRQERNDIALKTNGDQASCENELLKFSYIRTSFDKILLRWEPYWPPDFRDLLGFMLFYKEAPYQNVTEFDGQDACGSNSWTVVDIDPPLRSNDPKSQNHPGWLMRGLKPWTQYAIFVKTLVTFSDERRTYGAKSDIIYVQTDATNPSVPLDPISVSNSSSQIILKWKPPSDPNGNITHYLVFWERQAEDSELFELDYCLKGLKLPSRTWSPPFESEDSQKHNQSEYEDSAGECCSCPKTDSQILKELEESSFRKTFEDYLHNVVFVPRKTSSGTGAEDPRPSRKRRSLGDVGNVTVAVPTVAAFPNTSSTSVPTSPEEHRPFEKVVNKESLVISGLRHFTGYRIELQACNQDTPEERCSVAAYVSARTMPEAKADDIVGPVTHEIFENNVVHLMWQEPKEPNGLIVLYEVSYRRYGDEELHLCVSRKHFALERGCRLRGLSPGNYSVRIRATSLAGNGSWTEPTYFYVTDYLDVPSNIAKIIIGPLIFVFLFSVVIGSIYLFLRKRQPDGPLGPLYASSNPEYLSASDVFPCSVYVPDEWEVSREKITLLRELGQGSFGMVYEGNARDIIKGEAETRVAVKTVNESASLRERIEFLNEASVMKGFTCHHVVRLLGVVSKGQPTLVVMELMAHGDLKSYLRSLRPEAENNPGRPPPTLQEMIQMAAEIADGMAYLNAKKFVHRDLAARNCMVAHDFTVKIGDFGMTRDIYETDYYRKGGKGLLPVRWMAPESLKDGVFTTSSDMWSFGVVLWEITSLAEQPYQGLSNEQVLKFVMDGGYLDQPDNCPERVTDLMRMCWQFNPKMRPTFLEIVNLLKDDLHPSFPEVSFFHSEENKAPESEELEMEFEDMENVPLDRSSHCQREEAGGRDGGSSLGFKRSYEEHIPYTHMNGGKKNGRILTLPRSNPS

With `N#Cc1ccc2[nH]cc(CCCCN3CCC(NC(=O)c4cccc5c(C#N)c[nH]c45)CC3)c2c1` [compound 10, 3-Cyano-1H-indole-7-carboxylic acid {1-[4-(5-cyano-1H-indol-3-yl)butyl]piperidin-4-yl}amide], on insulin receptor, the “no relevant interference with cellular insulin receptor signaling up to” value is above 30 µM. The “biochemical IGF-1R activity” value in data set [1] was “nanomolar”. Also, the “cellular IGF-1R activity” value in data set [2] is “micromolar”.

A word on the IC50: it is the midpoint of a concentration-inhibition curve. As for `N#Cc1ccc2[nH]cc(CCCCN3CCN(c4ccc5oc(C(N)=O)cc5c4)CC3)c2c1` [vilazodone, 5-{4-[4-(5-Cyano-3-indolyl)butyl]-1-piperazinyl}benzofuran-2-carboxamide], the IC50 on D2 receptor was 666 nM.
